According to patent publication US20220340597A1, “HEXAHYDRO-1H-PYRAZINO[1,2-A]PYRAZINE COMPOUNDS FOR THE TREATMENT OF AUTOIMMUNE DISEASE” (Hoffmann-La Roche Inc., priority 2019, published 2022):

Target: T1, human TLR9 (Homo sapiens, UniProt Q9NR96)
T1 construct: host or cells: HEK293 (HEK-Blue hTLR9)
T1 sequence (Q9NR96 26-1032): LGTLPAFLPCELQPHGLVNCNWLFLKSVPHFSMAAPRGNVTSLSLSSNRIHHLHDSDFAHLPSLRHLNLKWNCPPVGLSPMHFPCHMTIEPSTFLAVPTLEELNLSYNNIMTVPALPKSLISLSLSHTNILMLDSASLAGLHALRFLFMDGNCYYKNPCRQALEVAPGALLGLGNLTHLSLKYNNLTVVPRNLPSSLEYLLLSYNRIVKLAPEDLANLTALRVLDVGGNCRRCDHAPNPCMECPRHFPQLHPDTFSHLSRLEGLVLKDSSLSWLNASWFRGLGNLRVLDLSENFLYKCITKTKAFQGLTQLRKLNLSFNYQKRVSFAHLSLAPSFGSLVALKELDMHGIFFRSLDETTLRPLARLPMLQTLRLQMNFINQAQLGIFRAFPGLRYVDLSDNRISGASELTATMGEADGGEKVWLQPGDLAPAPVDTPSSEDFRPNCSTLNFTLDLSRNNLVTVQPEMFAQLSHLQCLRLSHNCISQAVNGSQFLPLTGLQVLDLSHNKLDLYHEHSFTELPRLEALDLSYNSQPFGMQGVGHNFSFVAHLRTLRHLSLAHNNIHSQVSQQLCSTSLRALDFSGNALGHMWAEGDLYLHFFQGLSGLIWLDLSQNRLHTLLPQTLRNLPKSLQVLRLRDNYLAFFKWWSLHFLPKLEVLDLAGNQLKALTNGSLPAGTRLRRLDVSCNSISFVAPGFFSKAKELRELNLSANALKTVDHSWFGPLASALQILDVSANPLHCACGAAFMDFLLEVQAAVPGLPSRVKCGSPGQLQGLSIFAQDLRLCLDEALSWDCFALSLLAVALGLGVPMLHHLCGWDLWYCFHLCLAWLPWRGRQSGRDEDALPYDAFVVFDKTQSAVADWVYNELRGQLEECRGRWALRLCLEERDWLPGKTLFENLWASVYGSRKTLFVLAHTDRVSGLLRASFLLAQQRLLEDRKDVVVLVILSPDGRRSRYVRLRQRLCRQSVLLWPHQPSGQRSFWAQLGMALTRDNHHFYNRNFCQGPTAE
Assay: HEK293-Blue-hTLR-9 cells assay
Assay type: cell-based
Settings: HEK293-Blue-hTLR9 cells, ODN2006 stimulation, 20 hrs, SEAP reporter; read-out: HEK/hTLR9 IC50
Method: The following tests were carried out in order to determine the activity of the compounds of formula (I) and (Ia) in HEK293-Blue-hTLR-7/8/9 cells assay.
HEK293-Blue-hTLR-9 Cells Assay:
A stable HEK293-Blue-hTLR-9 cell line was purchased from InvivoGen (Cat. #: hkb-htlr9, San Diego, Calif., USA). These cells were originally designed for studying the stimulation of human TLR9 by monitoring the activation of NF-κB. A SEAP (secreted embryonic alkaline phosphatase) reporter gene was placed under the control of the […] minimal promoter fused to five NF-κB and AP-1-binding sites. The SEAP was induced by activating NF-κB and AP-1 via stimulating HEK-Blue hTLR9 cells with TLR9 ligands. Therefore, the reporter expression was declined by TLR9 antagonist under the stimulation of a ligand, such as ODN2006 (Cat. #: tlr1-2006-1, Invivogen, San Diego, Calif., USA), for incubation of 20 hrs. The cell culture supernatant SEAP reporter activity was determined using QUANTI-Blue™ kit (Cat. #: rep-qb1, Invivogen, San Diego, Calif., USA) at a wavelength of 640 nm, a detection medium that turns purple or blue in the presence of alkaline phosphatase.
Then 20 μL of the supernatant from each well was incubated with 180 μL Quanti-blue substrate solution at 37° C. for 2 h and the absorbance was read at 620-655 nm using a spectrophotometer. The signaling pathway that TLR9 activation leads to downstream NF-κB activation has been widely accepted, and therefore similar reporter assay was modified for evaluating TLR9 antagonist.

| Compound | IC50 [nM] |
| --- | --- |
| Cc1cc(N2CCOC[C@H](N)C2)ncc1N1CCN2CCN(c3ccc(C#N)c4ncccc34)CC2C1 (stereo partly drawn) [Example 46, 5-[2-[6-[(6R)-6-amino-1,4-oxazepan-4-yl]-4-methyl-3-pyridyl]-3,4,6,7,9,9a-hexahydro-1H-pyrazino[1,2-a]pyrazin-8-yl]quinoline-8-carbonitrile] | 78 |
| C[C@@H]1CN(c2ccc(C#N)c3ncccc23)C[C@@H]2CN(c3ccnc(N4CCOC[C@@H](N)C4)c3)CCN21 [Example 53, 5-[(4R,9aS)-8-[2-[(6S)-6-amino-1,4-oxazepan-4-yl]-4-pyridyl]-4-methyl-3,4,6,7,9,9a-hexahydro-1H-pyrazino[1,2-a]pyrazin-2-yl]quinoline-8-carbonitrile] | < 32 |
| C[C@@H]1CN(c2ccc(C#N)c3ncccc23)C[C@@H]2CN(c3ccnc(N4CCOC[C@H](N)C4)c3)CCN21 [Example 54, 5-[(4R,9aS)-8-[2-[(6R)-6-amino-1,4-oxazepan-4-yl]-4-pyridyl]-4-methyl-3,4,6,7,9,9a-hexahydro-1H-pyrazino[1,2-a]pyrazin-2-yl]quinoline-8-carbonitrile] | 43 |
| C[C@@H]1CN(c2ccc(C#N)c3ncccc23)C[C@@H]2CN(c3ccnc(N4CC(C)(N)C4)c3)CCN21 [Example 56, 5-[(4R,9aS)-8-[2-(3-amino-3-methyl-azetidin-1-yl)-4-pyridyl]-4-methyl-3,4,6,7,9,9a-hexahydro-1H-pyrazino[1,2-a]pyrazin-2-yl]quinoline-8-carbonitrile] | < 32 |
| C[C@@H]1CN(c2ccc(C#N)c3ncccc23)C[C@@H]2CN(Cc3cncc(N4CCNCC4)c3)CCN21 [Example 57, 5-[(4R,9aS)-4-methyl-8-[(5-piperazin-1-yl-3-pyridyl)methyl]-3,4,6,7,9,9a-hexahydro-1H-pyrazino[1,2-a]pyrazin-2-yl]quinoline-8-carbonitrile] | 94 |
| C[C@@H]1CN(c2cccc(CCN3CCN4[C@@H](C3)CN(c3ccc(C#N)c5ncccc35)C[C@H]4C)n2)CCN1 [Example 58, 5-[(4R,9aS)-4-methyl-8-[2-[6-[(3R)-3-methylpiperazin-1-yl]-2-pyridyl]ethyl]-3,4,6,7,9,9a-hexahydro-JH-pyrazino[1,2-a]pyrazin-2-yl]quinoline-8-carbonitrile] | 51 |
| C[C@@H]1CN(c2ccc(C#N)c3ncccc23)C[C@@H]2CN(CCc3ccc(N4CC5(CNCCO5)C4)nc3)CCN21 [Example 59, 5-[(4R,9aS)-4-methyl-8-[2-[6-(5-oxa-2,8-diazaspiro[3.5]nonan-2-yl)-3-pyridyl]ethyl]-3,4,6,7,9,9a-hexahydro-1H-pyrazino[1,2-a]pyrazin-2-yl]quinoline-8-carbonitrile] | 48 |
| Cc1nc(N2CCNCC2)ccc1CN1CCN2[C@@H](C1)CN(c1ccc(C#N)c3ncccc13)C[C@H]2C [Example 60, 5-[(4R,9aS)-4-methyl-8-[(2-methyl-6-piperazin-1-yl-3-pyridyl)methyl]-3,4,6,7,9,9a-hexahydro-1H-pyrazino[1,2-a]pyrazin-2-yl]quinoline-8-carbonitrile] | 53 |
| [2H]c1ccc2c(N3C[C@@H]4CN(Cc5ccc6c(c5)CNCC6)CCN4[C@H](C)C3)ccc(C#N)c2n1 [Example 61, 5-[(4R,9aS)-4-methyl-8-(1,2,3,4-tetrahydroisoquinolin-7-ylmethyl)-3,4,6,7,9,9a-hexahydro-1H-pyrazino[1,2-a]pyrazin-2-yl]-2-deuterio-quinoline-8-carbonitrile] | 64 |
| [2H]c1ccc2c(N3C[C@@H]4CN(CCc5ccc(N6C[C@@H](N)[C@H](OC)C6)nc5)CCN4[C@H](C)C3)ccc(C#N)c2n1 [Example 62, 5-[(4R,9aS)-8-[2-[6-[(3R,4R)-3-amino-4-methoxy-pyrrolidin-1-yl]-3-pyridyl]ethyl]-4-methyl-3,4,6,7,9,9a-hexahydro-1H-pyrazino[1,2-a]pyrazin-2-yl]-2-deuterio-quinoline-8-carbonitrile] | 43 |
| [2H]c1ccc2c(N3C[C@@H]4CN(CCc5ccc(N6CC7(CN(C)C7)C6)nc5)CCN4[C@H](C)C3)ccc(C#N)c2n1 [Example 64, 5-[(4R,9aS)-4-methyl-8-[2-[6-(6-methyl-2,6-diazaspiro[3.3]heptan-2-yl)-3-pyridyl]ethyl]-3,4,6,7,9,9a-hexahydro-1H-pyrazino[1,2-a]pyrazin-2-yl]-2-deuterio-quinoline-8-carbonitrile] | 32 |
| C[C@@H]1CN(c2ccc(C#N)c3ncccc23)C[C@@H]2CN(CCc3ccc(N4CC(C)(N)C4)nc3)CCN21 [Example 65, 5-[(4R,9aS)-8-[2-[6-(3-amino-3-methyl-azetidin-1-yl)-3-pyridyl]ethyl]-4-methyl-3,4,6,7,9,9a-hexahydro-1H-pyrazino[1,2-a]pyrazin-2-yl]quinoline-8-carbonitrile] | 50 |
| CO[C@@H]1CN(c2ccc(CCN3CCN4[C@@H](C3)CN(c3ccc(C#N)n5ncc(F)c35)C[C@H]4C)cc2)C[C@H]1N [Example 66, 4-[(4R,9aS)-8-[2-[4-[(3R,4R)-3-amino-4-methoxy-pyrrolidin-1-yl]phenyl]ethyl]-4-methyl-3,4,6,7,9,9a-hexahydro-1H-pyrazino[1,2-a]pyrazin-2-yl]-3-fluoro-pyrazolo[1,5-a]pyridine-7-carbonitrile] | 116 |
| CO[C@@H]1CN(c2ccc(CCN3CCN4[C@@H](C3)CN(c3ccc(C#N)n5ncc(F)c35)C[C@H]4C)cn2)C[C@H]1N [Example 67, 4-[(4R,9aS)-8-[2-[6-[(3R,4R)-3-amino-4-methoxy-pyrrolidin-1-yl]-3-pyridyl]ethyl]-4-methyl-3,4,6,7,9,9a-hexahydro-1H-pyrazino[1,2-a]pyrazin-2-yl]-3-fluoro-pyrazolo[1,5-a]pyridine-7-carbonitrile] | 83 |
| CO[C@@H]1CN(c2ccc(CCN3CCN4[C@@H](C3)CN(c3ccc(C#N)n5nccc35)C[C@H]4C)cc2)C[C@H]1N [Example 68, 4-[(4R,9aS)-8-[2-[4-[(3R,4R)-3-amino-4-methoxy-pyrrolidin-1-yl]phenyl]ethyl]-4-methyl-3,4,6,7,9,9a-hexahydro-1H-pyrazino[1,2-a]pyrazin-2-yl]pyrazolo[1,5-a]pyridine-7-carbonitrile] | 41 |
| C[C@@H]1CN(c2ccc(C#N)c3ncccc23)C[C@@H]2CN(Cc3cccc4c3CCNC4)CCN21 [Example 70, 5-[(4R,9aS)-4-methyl-8-(1,2,3,4-tetrahydroisoquinolin-5-ylmethyl)-3,4,6,7,9,9a-hexahydro-1H-pyrazino[1,2-a]pyrazin-2-yl]quinoline-8-carbonitrile] | 97 |
| C[C@@H]1CN(c2ccc(C#N)c3ncccc23)C[C@@H]2CN(Cc3cccc4c3CNCC4)CCN21 [Example 71, 5-[(4R,9aS)-4-methyl-8-(1,2,3,4-tetrahydroisoquinolin-8-ylmethyl)-3,4,6,7,9,9a-hexahydro-1H-pyrazino[1,2-a]pyrazin-2-yl]quinoline-8-carbonitrile] | 79 |
| C[C@@H]1CN(c2ccc(C#N)c3ncccc23)C[C@@H]2CN(Cc3cccc4c3CNC4)CCN21 [Example 72, 5-[(4R,9aS)-8-(isoindolin-4-ylmethyl)-4-methyl-3,4,6,7,9,9a-hexahydro-1H-pyrazino[1,2-a]pyrazin-2-yl]quinoline-8-carbonitrile] | 89 |
